In patent US8343475B2, “Small cationic antimicrobial peptides” (priority 2006, dated 2013):
≈ marks a conversion by molar mass, not a printed value. Residues, ends and D or L forms follow the SMILES beside them.

What was measured:
[1] = system: Pseudomonas aeruginosa PAO1 strain H103; type: cell-based
Outline: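 Modified broth microdilution MIC in Mueller Hinton medium, peptides diluted in 0.01% acetic acid/0.2% BSA, polypropylene plates. Inoculum 2-7×10^5 CFU/ml, overnight at 37 °C; MIC is the lowest concentration with no visible growth.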

[2] = system: Enterococcus faecalis ATCC29212; type: cell-based; settings: ATCC29212
Outline: (§1)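 MIC by modified broth microdilution in Mueller Hinton medium. Peptides were diluted in 0.01% acetic acid with 0.2% BSA and added at 10× to inoculum of 2-7×10^5 CFU/ml, then incubated overnight at 37 °C. MIC is the lowest concentration with no visible growth.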

[3] = system: Escherichia coli UB1005; type: cell-based; settings: UB1005
Outline: as §1

[4] = system: Staphylococcus aureus ATCC25923; type: cell-based; settings: ATCC25923
Outline: as §1

[5] = system: clinical isolate of Staphylococcus epidermidis; type: cell-based; settings: clinical isolate of
Outline: as §1

[6] = system: lab isolate of Candida albicans; type: cell-based; settings: lab isolate of
Outline: as §1

[7] = system: wild-type Salmonella enterica ssp. typhimurium; type: cell-based
Outline: as §1

[8] = system: clinical isolates of MRSA; type: cell-based, Staphylococcus aureus
Experimental: (§2) Minimal inhibitory concentration (MIC) determination. The MIC of the peptides were measured using a modified broth microdilution method in Mueller Hinton (MH) medium (Wu M, Hancock R E W. 1999. Interaction of the cyclic antimicrobial cationic peptide bactenecin with the outer and cytoplasmic membrane. J Biol Chem 274, 29-35). Briefly, the peptides were dissolved and stored in glass vials. The assay was performed in sterile 96-well polypropylene microtitre plates were used. Serial dilutions of the peptides to be assayed were performed in 0.01% acetic acid (Fisher) containing 0.2% bovine serum albumin (Boehringer Mannheim GmbH) at 10× the desired final concentration. Ten microlitres of the 10× peptides were added to each well of a 96-well polypropylene plate containing 90 μl of MH media per well. Bacteria were added to the plate from an overnight culture at 2-7×10^5 colony forming units/ml and incubated over night at 37° C. The MIC was taken as the concentration at which no growth was observed.
(§3) All peptides derived from the 1st, 2nd, and 3rd quartiles were further evaluated for their antibacterial activities against several highly antibitoic resistant pathogens (Table 3). These included clinical isolates of MRSA, ESBL E. cloacae, and multidrug resistant Pseudomonas strains including Brazilian clinical isolates of P. aeruginosa that are resistant to meropenem, ceftazidime, piperacillin/tazobactam, ciprofloxacin, cefepime and polymyxin B, and the Liverpool Epidemic Strains. […] Such results characterize the developed peptides as excellent antibiotic candidates, providing new means for treating most dangerous and severe forms of human infections.

[9] = system: ESBL E. cloacae; type: cell-based, Enterobacter cloacae
Experimental: as §2, §3

[10] = system: Liverpool Epidemic Strains; type: cell-based, Pseudomonas aeruginosa
Experimental: as §2, §3

[11] = system: MCP-1 release by human PBMC; test: Chemokine induction in PBMC (capture ELISA); type: cell-based; settings: background (204) subtracted
Outline: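 Heparinized blood from healthy volunteers; Ficoll-isolated human PBMC (7.5×10^5) treated with peptides at 20 or 100 μg/ml for 24 hours at 37° C, 5% CO2. Cell-free supernatants assayed for MCP-1 by capture ELISA.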

[12] = system: MCP-3 release by human PBMC; test: Chemokine induction in PBMC (capture ELISA); type: cell-based; settings: background (6) subtracted
Outline: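 Human PBMC from healthy donors (Ficoll-isolated), 7.5×10^5 cells at 0.75–1×10^6 cells/ml, treated with peptides at 20 or 100 μg/ml for 24 h at 37° C, 5% CO2. MCP-3 in cell-free supernatants measured by capture ELISA.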

[13] = system: CXCL1 (Gro-α) release by human PBMC; test: Chemokine induction in PBMC (capture ELISA); type: cell-based; settings: background (196) subtracted
Outline: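 Human PBMC from healthy donors' heparinised blood (Ficoll), 7.5×10^5 cells treated with 20 or 100 μg/ml peptide for 24 h at 37° C, 5% CO2. Cell-free supernatants assayed for CXCL1 by capture ELISA.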

[14] = system: ESBL E. coli clinical strain 64771; type: cell-based; settings: ESBL clinical strain 64771
Experimental: as §2
(§4) The selected peptides were synthesized and assayed against several major antibiotic-resistant pathogens. Initially, the peptides were screened against the laboratory strain of P. aeruginosa PAO1 to compare the results with the training data. […] The antibacterial activity in the form of minimal inhibitory concentration (MIC) of the other studied peptides was assessed in greater depth (Table 9) against many highly antibiotic resistanct pathogens.

[15] = system: ESBL Klebsiella pneumonia clinical strain 63575; type: cell-based
Experimental: as §2, §4

[16] = system: multidrug resistant Pseudomonas maltophilia ATCC13637; type: cell-based
Experimental: as §2, §4

CC[C@H](C)[C@H](NC(=O)[C@H](CCCNC(=N)N)NC(=O)[C@H](C)NC(=O)[C@H](CC(C)C)NC(=O)[C@@H](N)CCCNC(=N)N)C(=O)N[C@H](C(=O)N[C@H](C(=O)N[C@H](C(=O)N[C@@H](CCCNC(=N)N)C(=O)N[C@H](C(=O)N[C@@H](C)C(=O)N[C@@H](CCCNC(=N)N)C(N)=O)C(C)C)[C@@H](C)CC)C(C)C)C(C)C [Bac2A, RLARIVVIRVAR-NH2, reference compound] (H-RLARIVVIRVAR-NH2; N-terminus assumed)
MIC P. aerug ([1]; PAO1): 50 µg/mL (≈ 35.2 µM) | MIC [2]: 12 µM (≈ 17 µg/mL) | MIC E. faecalis [2]: 17 µg/mL (≈ 12 µM) | MIC E. coli [3]: 17 µg/mL (≈ 12 µM) | MIC [4]: 24 µM (≈ 34.1 µg/mL) | MIC S. aureus [4]: 17 µg/mL (≈ 12 µM) | MIC S. epi. [5]: 4 µg/mL (≈ 2.82 µM) | MIC C. albicans [6]: 9 µg/mL (≈ 6.33 µM) | MIC S. typhi [7]: 34 µg/mL (≈ 23.9 µM) | MIC [8]: 24 µM (≈ 34.1 µg/mL) | MIC [9]: 24 µM (≈ 34.1 µg/mL) | MIC [10]: 12 µM (≈ 17 µg/mL) | Chemokine induction MCP-1 ([11]; 20 μg/ml peptide): 316 pg/mL | Chemokine induction MCP-1 ([11]; 100 μg/ml peptide): 442 pg/mL | Chemokine induction MCP-3 ([12]; 20 μg/ml peptide): 2 pg/mL | Chemokine induction MCP-3 ([12]; 100 μg/ml peptide): 2 pg/mL | Chemokine induction Gro-α ([13]; 20 μg/ml peptide): 9 pg/mL | Chemokine induction Gro-α ([13]; 100 μg/ml peptide): 8 pg/mL | MIC [14]: 24 µM (≈ 34.1 µg/mL) | MIC [15]: 192 µM (≈ 273 µg/mL) | MIC [16]: 3 µM (≈ 4.26 µg/mL)

CC[C@H](C)[C@H](NC(=O)[C@H](Cc1c[nH]c2ccccc12)NC(=O)[C@H](CCCCN)NC(=O)[C@@H](N)CCCNC(=N)N)C(=O)N[C@@H](Cc1c[nH]c2ccccc12)C(=O)N[C@@H](CCCNC(=N)N)C(=O)N[C@@H](Cc1c[nH]c2ccccc12)C(=O)N[C@@H](Cc1ccccc1)C(=O)N[C@@H](CC(C)C)C(N)=O [HHC75, RKWIWRWFL] (H-RKWIWRWFL-NH2; N-terminus assumed)
MIC against P. aeruginosa PAO1 ([1]; PAO1): 4 to 12 µM | MIC [2]: 6 µM (≈ 8.34 µg/mL) | MIC [4]: 31 µM (≈ 43.1 µg/mL) | MIC [8]: 3 µM (≈ 4.17 µg/mL) | MIC [9]: 3 µM (≈ 4.17 µg/mL) | MIC [10]: 1.5 µM (≈ 2.08 µg/mL) | Chemokine induction MCP-1 ([11]; 20 μg/ml peptide): 1313 pg/mL | Chemokine induction MCP-1 ([11]; 100 μg/ml peptide): 6140 pg/mL | Chemokine induction MCP-3 ([12]; 20 μg/ml peptide): 34 pg/mL | Chemokine induction MCP-3 ([12]; 100 μg/ml peptide): 322 pg/mL | Chemokine induction Gro-α ([13]; 20 μg/ml peptide): 554 pg/mL | Chemokine induction Gro-α ([13]; 100 μg/ml peptide): 1683 pg/mL | MIC [14]: 1.5 µM (≈ 2.08 µg/mL) | MIC [15]: 3.1 µM (≈ 4.31 µg/mL) | MIC [16]: 1.5 µM (≈ 2.08 µg/mL)

CC[C@H](C)[C@H](N)C(=O)N[C@@H](Cc1c[nH]c2ccccc12)C(=O)N[C@@H](Cc1c[nH]c2ccccc12)C(=O)N[C@@H](CCCCN)C(=O)N[C@@H](Cc1c[nH]c2ccccc12)C(=O)N[C@@H](CCCNC(=N)N)C(=O)N[C@@H](CCCNC(=N)N)C(=O)N[C@@H](Cc1c[nH]c2ccccc12)C(=O)N[C@H](C(N)=O)C(C)C [HHC77, IWWKWRRWV] (H-IWWKWRRWV-NH2; N-terminus assumed)
MIC against P. aeruginosa PAO1 ([1]; PAO1): 4 to 12 µM | MIC [2]: 24 µM (≈ 34 µg/mL) | MIC [4]: 3 µM (≈ 4.24 µg/mL) | MIC [8]: 3 µM (≈ 4.24 µg/mL) | MIC [9]: 6 µM (≈ 8.49 µg/mL) | MIC [10]: 6 µM (≈ 8.49 µg/mL) | Chemokine induction MCP-1 ([11]; 20 μg/ml peptide): 98 pg/mL | Chemokine induction MCP-1 ([11]; 100 μg/ml peptide): 4548 pg/mL | Chemokine induction MCP-3 ([12]; 20 μg/ml peptide): 0 pg/mL | Chemokine induction MCP-3 ([12]; 100 μg/ml peptide): 23 pg/mL | Chemokine induction Gro-α ([13]; 20 μg/ml peptide): -22 pg/mL | Chemokine induction Gro-α ([13]; 100 μg/ml peptide): 50 pg/mL | MIC [14]: 6 µM (≈ 8.49 µg/mL) | MIC [15]: 12 µM (≈ 17 µg/mL) | MIC [16]: 1.5 µM (≈ 2.12 µg/mL)

CC[C@H](C)[C@H](NC(=O)[C@H](Cc1ccccc1)NC(=O)[C@H](CCCCN)NC(=O)[C@H](Cc1ccccc1)NC(=O)[C@H](CCCNC(=N)N)NC(=O)[C@@H](N)CCCNC(=N)N)C(=O)N[C@@H](CCCNC(=N)N)C(=O)N[C@@H](Cc1c[nH]c2ccccc12)C(=O)N[C@@H](Cc1c[nH]c2ccccc12)C(N)=O [HHC100, RRFKFIRWW] (H-RRFKFIRWW-NH2; N-terminus assumed)
MIC against P. aeruginosa PAO1 ([1]; PAO1): 4 to 12 µM | MIC [2]: 12 µM (≈ 16.7 µg/mL) | MIC [4]: 6 µM (≈ 8.36 µg/mL) | MIC [8]: 6 µM (≈ 8.36 µg/mL) | MIC [9]: 12 µM (≈ 16.7 µg/mL) | MIC [10]: 3 µM (≈ 4.18 µg/mL) | Chemokine induction MCP-1 ([11]; 20 μg/ml peptide): 179 pg/mL | Chemokine induction MCP-1 ([11]; 100 μg/ml peptide): 197 pg/mL | Chemokine induction MCP-3 ([12]; 20 μg/ml peptide): -1 pg/mL | Chemokine induction MCP-3 ([12]; 100 μg/ml peptide): 0 pg/mL | Chemokine induction Gro-α ([13]; 20 μg/ml peptide): -18 pg/mL | Chemokine induction Gro-α ([13]; 100 μg/ml peptide): -43 pg/mL | MIC [14]: 12 µM (≈ 16.7 µg/mL) | MIC [15]: 49 µM (≈ 68.3 µg/mL) | MIC [16]: 0.8 µM (≈ 1.11 µg/mL)

CC(C)[C@H](NC(=O)[C@H](CCCNC(=N)N)NC(=O)[C@H](CCCCN)NC(=O)[C@@H](NC(=O)[C@H](Cc1ccccc1)NC(=O)[C@H](CCCCN)NC(=O)[C@H](Cc1c[nH]c2ccccc12)NC(=O)[C@@H](NC(=O)[C@H](C)N)C(C)C)C(C)C)C(N)=O [HHC123, AVWKFVKRV] (H-AVWKFVKRV-NH2; N-terminus assumed)
antimicrobial activity against P. aeruginosa PAO1 (in words) ([1]; laboratory strain P. aeruginosa PAO1): did not return any generally active substances | MIC [2]: >240 µM | MIC [4]: 240 µM (≈ 272 µg/mL) | MIC [8]: 240 µM (≈ 272 µg/mL) | MIC [9]: >240 µM | MIC [10]: 120 µM (≈ 136 µg/mL) | Chemokine induction MCP-1 ([11]; 20 μg/ml peptide): 46 pg/mL | Chemokine induction MCP-1 ([11]; 100 μg/ml peptide): 204 pg/mL | Chemokine induction MCP-3 ([12]; 20 μg/ml peptide): 0 pg/mL | Chemokine induction MCP-3 ([12]; 100 μg/ml peptide): 3 pg/mL | Chemokine induction Gro-α ([13]; 20 μg/ml peptide): -25 pg/mL | Chemokine induction Gro-α ([13]; 100 μg/ml peptide): 17 pg/mL | MIC [14]: 120 µM (≈ 136 µg/mL) | MIC [15]: >240 µM | MIC [16]: 60 µM (≈ 67.9 µg/mL)
